This note sets out measurements from PMC6720511, “Synthesis and biological evaluation of novel N-(piperazin-1-yl)alkyl-1H-dibenzo[a,c]carbazole derivatives of dehydroabietic acid as potential MEK inhibitors” (Journal of Enzyme Inhibition and Medicinal Chemistry, 2019).

Data set [1] concerns Hep3B. Description: MTT cytotoxic assay. It is filed as cell-based, human. Conditions: 48 h, mean value ± SD. On the procedure: (§1) Three human hepatocarcinoma cell lines (SMMC-7721, HepG2 and Hep3B) and normal hepatocyte cell line (QSG-7701) were maintained in Dulbecco Modified Eagle Medium (DMEM) containing 4.0 mM L-Glutamine and 4500 mg/l Glucose supplemented with 10% (v/v) foetalbovine serum (FBS) and 100 unites/mL penicillin/streptomycin at 37 °C in humidified atmosphere of 5% CO2 and 95% air.
(§2) The in vitro cytotoxic activities of the carbazole derivatives of DHA were evaluated against three human hepatocarcinoma cell lines (SMMC-7721, HepG2 and Hep3B) and a normal human hepatocyte cell line (QSG-7701) via the MTT colorimetric method. Briefly, SMMC-7721, HepG2, Hep3B and QSG-7701 cells were harvested at log phase of growth and seeded in 96-well plates (100 µL/well at a density of 2 × 10^5 cells/mL). After 24 h incubation at 37 °C and 5% CO2 to allow cell attachment, cultures were exposed to various concentrations of the isolated compounds for 48 h. Finally, MTT solution (2.5 mg/mL in PBS) was added (40 µL/well). Plates were further incubated for 4 h at 37 °C, and the formazan crystals formed were dissolved by adding 150 µL/well of DMSO. Absorption at 570 nm was measured with an ELISA plate reader. […] Doxorubicin was co-assayed as positive control.

Data set [2] has as its system HepG2. Briefly: MTT cytotoxic assay. To be noted: mean value ± SD. It is filed as cell-based, human. On the procedure:
as §1, §2
Background: Tetrazolium dyes change colour on reduction, which living cells bring about.

Data set [3] deals with SMMC-7721. Briefly: MTT cytotoxic assay. To be noted: mean value ± SD. It is filed as cell-based, human. On the procedure: as §1, §2
The test system of data set [4] is normal hepatocyte cell line (QSG-7701). Briefly: MTT cytotoxic assay on normal hepatocytes. Conditions: mean value ± SD. The data set is classed as cell-based, human. On the procedure: as §1, §2
Data set [5] relates to three human hepatocarcinoma cell lines (SMMC-7721, HepG2 and Hep3B). Briefly: MTT cytotoxic assay, statements over the three cancer cell lines. It is filed as cell-based. To be noted: for cytotoxic activity against three cancer cell lines (in words): SMMC-7721, HepG2 and Hep3B. On the procedure:
as §1, §2

The mark [6] stands for this setting: at least one of SMMC-7721, HepG2, Hep3B, read-out: IC50 against at least one hepatocarcinoma cell line.
[7] abbreviates: over SMMC-7721, HepG2 and Hep3B, read-out: IC50 against the three cancer cell lines.

Read-outs that look alike come from different tables or passages of the source.

As to “2,3,4,4a,9,13c-Hexahydro-7-isopropyl-1,4a-dimethyl-9–(2-(1,4-diazepan-1-yl) butyl)-1H-dibenzo[a,c]carbazole-1-carboxylic acid methyl ester [Compound 8d]”, the half-maximal inhibitory concentration (IC50) (in general, the point on the concentration scale where inhibition reaches its midpoint) in data set [1] was 14.4 ± 0.77 µM; in data set [2] (48 h) it was 11.5 ± 1.23 µM; in data set [3] (48 h), 12.8 ± 0.84 µM; in data set [4] (48 h) it was 43.6 ± 4.03 µM.
“2,3,4,4a,9,13c-Hexahydro-7-isopropyl-1,4a-dimethyl-9–(2-(1,4-diazepan-1-yl) propyl)-1H-dibenzo[a,c]carbazole-1-carboxylic acid methyl ester [Compound 7d]”: the IC50 in data set [1] was 12.8 ± 0.67 µM; in data set [2] (48 h) it was 8.68 ± 1.13 µM; in data set [3] (48 h) it was 10.3 ± 1.02 µM; in data set [4] (48 h) it was 32.8 ± 3.22 µM; in data set [5] (setting [6]) it was below 10 µM.
As to “2,3,4,4a,9,13c-Hexahydro-7-isopropyl-1,4a-dimethyl-9–(2-(4-(pyridine-2-yl) piperazin-1-yl)butyl)-1H-dibenzo[a,c]carbazole-1-carboxylic acid methyl ester [Compound 8g]”, the IC50 in data set [1], in data set [2] (48 h) and in data set [3] (48 h) was above 50 µM each time.
Consider “2,3,4,4a,9,13c-Hexahydro-7-isopropyl-1,4a-dimethyl-9–(2-(4-(pyridine-2-yl) piperazin-1-yl)propyl)-1H-dibenzo[a,c]carbazole-1-carboxylic acid methyl ester [Compound 7g]”, for which the IC50 in data set [1], in data set [2] (48 h) and in data set [3] (48 h) was above 50 µM throughout.
Regarding “2,3,4,4a,9,13c-Hexahydro-7-isopropyl-1,4a-dimethyl-9–(2-(4-benzylpiperazin -1-yl)butyl)-1H-dibenzo[a,c]carbazole-1-carboxylic acid methyl ester [Compound 8h]”, the IC50 in data set [1], in data set [2] (48 h) and in data set [3] (48 h) was above 50 µM each time.
“2,3,4,4a,9,13c-Hexahydro-7-isopropyl-1,4a-dimethyl-9–(2-(4-benzylpiperazin-1-yl)propyl)-1H-dibenzo[a,c]carbazole-1-carboxylic acid methyl ester [Compound 7h]”: the half-maximal inhibitory concentration (IC50) in data set [1], in data set [2] (48 h) and in data set [3] (48 h) was above 50 µM in each case.
Turning to “2,3,4,4a,9,13c-Hexahydro-7-isopropyl-1,4a-dimethyl-9–(2-(4-ethylpiperazin -1-yl)butyl)-1H-dibenzo[a,c]carbazole-1-carboxylic acid methyl ester [Compound 8c]”, the IC50 in data set [1], in data set [2] (48 h) and in data set [3] (48 h) was above 50 µM each time. Moreover, the “cytotoxic activity against three cancer cell lines (in words)” value (“cytotoxic activity” below) in data set [5] is given as “weak or no inhibitions”.
In the case of “2,3,4,4a,9,13c-Hexahydro-7-isopropyl-1,4a-dimethyl-9–(2-(4-ethylpiperazin -1-yl)propyl)-1H-dibenzo[a,c]carbazole-1-carboxylic acid methyl ester [Compound 7c]”, the IC50 in data set [1] is 40.7 ± 2.62 µM; in data set [2] (48 h) it was above 50 µM; in data set [3] (48 h) it was above 50 µM. Further, the “cytotoxic activity” value in data set [5] was “weak or no inhibitions”.
“2,3,4,4a,9,13c-Hexahydro-7-isopropyl-1,4a-dimethyl-9–(2-(4-formylpiperazin-1-yl)butyl)-1H-dibenzo[a,c]carbazole-1-carboxylic acid methyl ester [Compound 8e]”: the IC50 in data set [1] was 38 ± 1.75 µM; in data set [2] (48 h), 41.2 ± 3.56 µM; in data set [3] (48 h), 32.1 ± 2.78 µM; in data set [4] (48 h) it was above 50 µM. Also, in data set [5], the “cytotoxic activity” value was “moderate inhibitions”.
The matching figures for “2,3,4,4a,9,13c-Hexahydro-7-isopropyl-1,4a-dimethyl-9–(2-(4-formylpiperazin-1-yl)propyl)-1H-dibenzo[a,c]carbazole-1-carboxylic acid methyl ester [Compound 7e]”: 20 ± 1.22 µM, 16.9 ± 1.58 µM, 23.3 ± 2.35 µM, above 50 µM and “moderate inhibitions”.
Turning to “2,3,4,4a,9,13c-Hexahydro-7-isopropyl-1,4a-dimethyl-9–(2-(4-phenyl piperazin-1-yl)butyl)-1H-dibenzo[a,c]carbazole-1-carboxylic acid methyl ester [Compound 8f]”, the IC50 in data set [1], in data set [2] (48 h) and in data set [3] (48 h) was above 50 µM throughout.
Consider “2,3,4,4a,9,13c-Hexahydro-7-isopropyl-1,4a-dimethyl-9–(2-(4-phenyl piperazin-1-yl)propyl)-1H-dibenzo[a,c]carbazole-1-carboxylic acid methyl ester [Compound 7f]”, for which the concentration for half-maximal inhibition (IC50) in data set [1], in data set [2] (48 h) and in data set [3] (48 h) was above 50 µM throughout.
With “2,3,4,4a,9,13c-Hexahydro-7-isopropyl-1,4a-dimethyl-9–(2-(piperazin-1-yl) butyl)-1H-dibenzo[a,c]carbazole-1-carboxylic acid methyl ester [Compound 8a]”, the half-inhibitory concentration (IC50) in data set [1] is 2.89 ± 0.27 µM; in data set [2] (48 h), 4.8 ± 0.32 µM; in data set [3] (48 h), 6.1 ± 0.47 µM; in data set [4] (48 h), 23.4 ± 2.97 µM; in data set [5] (setting [6]), below 10 µM; in data set [5] (setting [7]) it was 2.89 to 6.1 µM.
Turning to “2,3,4,4a,9,13c-Hexahydro-7-isopropyl-1,4a-dimethyl-9–(2-(piperazin-1-yl) propyl)-1H-dibenzo[a,c]carbazole-1-carboxylic acid methyl ester [Compound 7a]”, the IC50 in data set [1] is 1.37 ± 0.2 µM; in data set [2] (48 h), 3.1 ± 0.45 µM; in data set [3] (48 h) it was 5.1 ± 0.18 µM; in data set [4] (48 h), 17.2 ± 1.89 µM; in data set [5] (setting [6]), below 10 µM; in data set [5] (setting [7]), 1.37 to 5.1 µM.
Consider “2,3,4,4a,9,13c-Hexahydro-7-isopropyl-1,4a-dimethyl-9–(3-(4-methyl piperazin-1-yl)butyl)-1H-dibenzo[a,c]carbazole-1-carboxylic acid methyl ester [Compound 8b]”, for which the IC50 in data set [1] is 18.3 ± 1.02 µM; in data set [2] (48 h) it was 19.6 ± 2.91 µM; in data set [3] (48 h), 34.9 ± 3.35 µM; in data set [4] (48 h), above 50 µM.
In the case of `COC(=O)C1(C)CCCC2(C)c3ccc(C(C)C)cc3-c3c(c4ccccc4n3CCN3CCN(C)CC3)C12` (stereo not shown) [Compound 6b, 2,3,4,4a,9,13c-Hexahydro-7-isopropyl-1,4a-dimethyl-9–(2-(4-methylpiperazin-1-yl)ethyl)-1H-dibenzo[a,c]carbazole-1-carboxylic acid methyl ester], the 50% inhibitory concentration (IC50) in data set [1] (Homo sapiens, Hep3B) is 6.78 ± 0.42 µM; in data set [2] (Homo sapiens, HepG2, 48 h) it was 11.7 ± 0.58 µM; in data set [3] (Homo sapiens, SMMC-7721, 48 h), 13.2 ± 0.76 µM; in data set [4] (Homo sapiens, QSG7701, 48 h), 27.5 ± 1.87 µM; in data set [5] (Homo sapiens, at least one of SMMC-7721, HepG2, Hep3B, read-out: IC50 against at least one hepatocarcinoma cell line) it was below 10 µM.
`COC(=O)C1(C)CCCC2(C)c3ccc(C(C)C)cc3-c3c(c4ccccc4n3CCN3CCN(c4ccccc4)CC3)C12` (stereo not shown) [Compound 6f, 2,3,4,4a,9,13c-Hexahydro-7-isopropyl-1,4a-dimethyl-9–(2-(4-phenylpiperazin-1-yl)ethyl)-1H-dibenzo[a,c]carbazole-1-carboxylic acid methyl ester]: the IC50 in data set [1] (Homo sapiens, Hep3B) is above 50 µM; in data set [2] (Homo sapiens, HepG2, 48 h), above 50 µM; in data set [3] (Homo sapiens, SMMC-7721, 48 h), above 50 µM.
With `COC(=O)C1(C)CCCC2(C)c3ccc(C(C)C)cc3-c3c(c4ccccc4n3CCN3CCN(c4ccccn4)CC3)C12` (stereo not shown) [Compound 6g, 2,3,4,4a,9,13c-Hexahydro-7-isopropyl-1,4a-dimethyl-9–(2-(4-(pyridine-2-yl)piperazin-1-yl)ethyl)-1H-dibenzo[a,c]carbazole-1-carboxylic acid methyl ester], the IC50 in data set [1] (Homo sapiens, Hep3B) was above 50 µM; in data set [2] (Homo sapiens, HepG2, 48 h) it was above 50 µM; in data set [3] (Homo sapiens, SMMC-7721, 48 h), above 50 µM.
For `COC(=O)C1(C)CCCC2(C)c3ccc(C(C)C)cc3-c3c(c4ccccc4n3CCN3CCN(Cc4ccccc4)CC3)C12` (stereo not shown) [Compound 6h, 2,3,4,4a,9,13c-Hexahydro-7-isopropyl-1,4a-dimethyl-9–(2-(4-benzylpiperazin-1-yl)ethyl)-1H-dibenzo[a,c]carbazole-1-carboxylic acid methyl ester], the half-maximal inhibitory concentration (IC50) in data set [1] (Homo sapiens, Hep3B) was above 50 µM; in data set [2] (Homo sapiens, HepG2, 48 h), above 50 µM; in data set [3] (Homo sapiens, SMMC-7721, 48 h) it was above 50 µM.
For the molecule `COc1cccc2c1C(=O)c1c(O)c3c(c(O)c1C2=O)C[C@@](O)(C(=O)CO)C[C@@H]3O[C@H]1C[C@H](N)[C@H](O)[C@H](C)O1` [Doxorubicin, reference compound], the half-maximal inhibitory concentration (IC50) turned out to be 1.02 ± 0.09 µM in data set [1] (Homo sapiens, Hep3B); 2.38 ± 0.29 µM in data set [2] (Homo sapiens, HepG2, 48 h); 1.13 ± 0.11 µM in data set [3] (Homo sapiens, SMMC-7721, 48 h); 13.8 ± 0.53 µM in data set [4] (Homo sapiens, QSG7701, 48 h).
